Source: patent US20120195862A1, “BIO[…] OF HEMATOPOIESIS” (CHILDREN'S MEDICAL CENTER CORPORATION, priority 2009, published 2012)
Entries after “also recorded” stand apart in the source; their conditions may differ.

Key:
ES-derived cells = experiment: Methylcellulose hematopoietic colony forming unit (CFU) assay of ES-derived cells exposed to wall shear stress or static culture; format: cell-based, mouse; conditions: 2 mM; for number of CFUs in ES-derived cultures in static conditions: static conditions (no shear stress), n=2
Experimental: Ainv15 CDX4-inducible mouse embryonic stem cells (iCDX4 ES) were cultured on mitomycin-treated Mouse Embryonic Fibroblasts (MEFs) (Chemicon, strain CF-1) and passaged every 2 to 3 days with 0.25% trypsin/EDTA as previously described. Wang et al., 102 P.N.A.S. 19081-86 (2005). To induce differentiation, ES cells were trypsinized, gently dispersed by repetitive pipetting and re-plated for 45 min at 37° C. for MEF depletion. Floating and loosely-adherent cells were gathered, checked for viability with trypan blue, and diluted in Embryoid Body (EB) differentiation media (Iscove's Modified Dulbecco's Medium [IMDM], 10% FCS [STEMCELL Tech., Vancouver, British Columbia, cat #06952], Penicillin 10 units/ml, Streptomycin 10 μg/ml, 1 mM L-Glutamine, Monothiolglycerol 3.8 nl/ml, Fe-saturated transferrin 0.2 mg/ml, Ascorbic Acid 0.5 mg/ml), to a final concentration of 6.7×10^3 cell/ml. EBs were cultured via the hanging drop method in 15 μl drops on 15 cm bacterial dishes. Typically, 100 plates of EBs were used per experiment. After 48 hr, EBs were pooled into calcium and magnesium containing warm PBS and collected by precipitation in 50 ml Falcon tubes. Pooled EBs were transferred to 10 cm tissue culture dishes containing 10 ml of EB differentiation media each, placed on an orbital shaker moving at 75 rev/min, and incubated for an additional 30 hr. Following this second culture phase, day 3.25-EBs were collected by precipitation, washed two times in 30 ml calcium-free PBS and trypsinized for 1 min in a 1:1 dilution of calcium-free PBS and 0.25% Trypsin-EDTA. Trypsinization was blocked by addition of 10 ml EB differentiation media.
More specifically, in the instant approach, plates were coated with a thick layer of 1% gelatin (DIFCO #214340, Becton Dickinson). After 12 hr, cells were washed three times with 10 ml of warm PBS with calcium and incubated for 45 min with EB differentiation media with or without 2 mM N(G)-nitro-L-arginine methyl ester (L-NAME) or 2 mM N(G)-nitro-D-arginine methyl ester (D-NAME) (Sigma-Aldrich). Cells to be moved to the dynamic flow system were incubated in 7 ml of media, and static controls incubated in 20 ml of media. Following 45 min incubation, cells were either moved to the Dynamic Flow System and exposed to shear stress or maintained in a standard cell culture incubator. The shear stress ramped up in a step-wise fashion from 0 dyne/cm^2 to 5 dyne/cm^2 over a period of 12 hr, in order to minimize cell loss during the transition from static to dynamic culture. Following the 12 hr ramping period, the cells were then exposed to a constant 5 dyne/cm^2 shear stress for 36 hr. […]
Methylcellulose assay was performed as previously described and scored on days 8 to 10 post-plating. […]

Runx1 = experiment: Quantitative real-time PCR gene expression analysis of Runx1 in ES-derived cells (CD41+/cKit+); format: cell-based, mouse; conditions: 2 mM; for Runx1 expression in static cultures of ES-derived cells: static conditions, n=2
Experimental: More specifically, in the instant approach, plates were coated with a thick layer of 1% gelatin (DIFCO #214340, Becton Dickinson). After 12 hr, cells were washed three times with 10 ml of warm PBS with calcium and incubated for 45 min with EB differentiation media with or without 2 mM N(G)-nitro-L-arginine methyl ester (L-NAME) or 2 mM N(G)-nitro-D-arginine methyl ester (D-NAME) (Sigma-Aldrich). Cells to be moved to the dynamic flow system were incubated in 7 ml of media, and static controls incubated in 20 ml of media. Following 45 min incubation, cells were either moved to the Dynamic Flow System and exposed to shear stress or maintained in a standard cell culture incubator. The shear stress ramped up in a step-wise fashion from 0 dyne/cm^2 to 5 dyne/cm^2 over a period of 12 hr, in order to minimize cell loss during the transition from static to dynamic culture. Following the 12 hr ramping period, the cells were then exposed to a constant 5 dyne/cm^2 shear stress for 36 hr. In cells exposed to shear stress, culture media with or without D-NAME or L-NAME were automatically exchanged and stored at 37° C. and 5% CO2. In static controls, culture medium was replaced after 24 hr and stored in 75 cm^2 flasks in a cell culture incubator. After 48 hr exposure to shear stress or growth under static conditions, cells were detached by 10 min incubation with a 1:1 dilution of Trypsin-Versene mixture (Cambrex, #17-161E) and Hank's Balanced Salt Solution.
Total RNA was extracted with a RNEASY® Micro Kit (QIAGEN, Inc., Valencia, Calif.), according to manufacturer's instructions. For RNA extraction from CD41^+/cKIT^+ cells, approximately 7,000 cells were sorted directly into 300 μl of Lysis Buffer. Reverse transcription of RNA was performed using MULTISCRIBE™ […] (Applied Biosystems, Foster City, Calif.), according to manufacturer's instructions. When processing FACS-sorted cells, RNA was eluted in 20 μl and all collected RNA was used in 50 μl reverse transcription reaction. […]

[1] = test system: hematopoietic progenitors in the aorta-gonad-mesonephros (AGM) region; experiment: In vivo colony forming unit (CFU) assay of the AGM region after treating pregnant mice; set-up: species or system mouse; conditions: 300 mg/kg i.p. on E8.5 and 24 hr later, E10.5 embryos, versus D-NAME, p=0.0008
Experimental: Methylcellulose assay was performed as previously described and scored on days 8 to 10 post-plating. Wang et al., 102 P.N.A.S. 19081-86 (2005).
Day-7 post-coitum timed-pregnant Swiss-Webster mice were purchased from Taconic Farms. Noon on the day the copulation plug was found was designated 0.5 days. On day E8.5 (day 9 post coitum) mice were intraperitoneally injected with 300 mg/kg of L-NAME or D-NAME (SIGMA) dissolved in sterile, apyrogenic saline solution using a dose volume of 10 ml/kg. The injection was repeated after 24 hr. Exactly 24 hr after the second injection, mice were euthanized with CO2, embryos were harvested, and a conservative dissection of the AGM was performed. Embryo trunks were dissociated with 0.1% dispase and analyzed with the methylcellulose assay. Experiments were carried out with Institutional Animal Care and Use Committee approval from Harvard Medical School or Children's Hospital, Boston.

COC(=O)[C@H](N)CCCN=C(N)N[N+](=O)[O-] [D-NAME, N(G)-nitro-D-arginine methyl ester]
number of CFUs in ES-derived cultures in static conditions (ES-derived cells): do not affect; also recorded: no effect
Runx1 expression in static cultures of ES-derived cells (Runx1): do not affect; also recorded: no effect

COC(=O)[C@@H](N)CCCNC(=N)N[N+](=O)[O-] [L-NAME, N(G)-nitro-L-arginine methyl ester]
shear stress-induced enrichment in CFUs (ES-derived cells; shear stress, compared with cells treated with D-NAME): significant reduction
reduction of the WSS-mediated increase in hematopoietic colony forming units (ES-derived cells; wall shear stress 5 dyne/cm^2, n=3, p=0.04): 50%
number of CFUs in ES-derived cultures in static conditions (ES-derived cells): do not affect; also recorded: no effect
WSS-mediated Runx1 upregulation (Runx1; CD41+/cKit+ cells exposed to shear stress, n=3): does not affect; also recorded: did not affect
Runx1 expression in static cultures of ES-derived cells (Runx1): do not affect; also recorded: no effect
number of CFUs per AGM (hematopoietic progenitors in the AGM region) [1]: reduction; also recorded: marked decrease
